Laboratory results reported in ChEMBL document CHEMBL2040815, “Sentulic acid: a cytotoxic ring A-seco triterpenoid from Sandoricum koetjape Merr” (Bioorg Med Chem Lett, 2012).
The source made the active and inactive calls. The rule behind the calls is not given here.

Assays:
HL-60 [1] = assay: Cytotoxicity against human HL60 cells assessed as inhibition of cell proliferation at 25 uM after 24 to 72 hrs by trypan blue dye exclusion test relative to control; format: functional
HL-60 [2] = assay: Cytotoxicity against human HL60 cells assessed as inhibition of cell proliferation at 100 uM after 24 to 72 hrs by trypan blue dye exclusion test; format: functional, cell-based
HL-60 [3] = assay: Cytotoxicity against human HL60 cells assessed as decrease in cell viability after 24 to 72 hrs by trypan blue dye exclusion test; format: functional, cell-based
HL-60 [4] = assay: Induction of apoptosis in human HL60 cells assessed as fragmentation of the nuclei at 50 to 100 uM after 24 hrs by Hoechst 33342 staining; format: functional, cell-based
HL-60 [5] = assay: Induction of apoptosis in human HL60 cells assessed as DNA fragmentation laddering at 100 uM by agarose gel electrophoresis; format: functional, cell-based
HL-60 [6] = assay: Cytotoxicity against human HL60 cells after 48 hrs by MTT assay; format: functional, cell-based; details: HL-60, 48 h
HL-60 [7] = assay: Induction of apoptosis in human HL60 cells assessed as condensation of chromatin at 50 to 100 uM after 24 hrs by Hoechst 33342 staining; format: functional, cell-based

| Compound | inhibition at 25 µM (HL-60 [1]) [%] | inhibition (HL-60 [2]) | Activity (HL-60 [3]) | Activity (HL-60 [4]) | Activity (HL-60 [5]) | IC50 (HL-60 [6]) [µM] | Activity (HL-60 [7]) |
| --- | --- | --- | --- | --- | --- | --- | --- |
| CC1(C)CC[C@]2(C)CC[C@]3(C(=O)O)C(=CC[C@@H]4[C@@]5(C)CCC(=O)C(C)(C)[C@@H]5CC[C@]43C)[C@@H]2C1 | 50 | Active | Dose-dependent effect | Active | Active | 27.4 | Active |
| C=C(C)[C@@H]1CC[C@]2(C)[C@H](CC=C3[C@@H]4CC(C)(C)CC[C@]4(C)CC[C@]32C(=O)O)[C@@]1(C)CCC(=O)O [SENTULIC ACID] | 50 | Active | Dose-dependent effect | Active | Active | 37 | Active |
